For 17 compounds, CC50 and EC50 results are on record in US12030904B2 (priority 2020, dated 2024).

By CC50 is commonly meant the concentration at which the toxic effect on the cells reaches its halfway point. A higher CC50 goes with better tolerance by the cells. As a reminder, the EC50 is the concentration at which the effect is half-maximal.

The nature of one data set: MT4 cytotoxicity (CC50). As to conditions: human, MT4 cells.
For a further data set, the system named is SARS-CoV-2. Nature of the data set: microbe, parasite or virus in culture. Type of data set: cell-based. As to conditions: Severe acute respiratory syndrome coronavirus 2, read-out: SARS EC50.
In data set [1] the test system is Recombinant Respiratory Syncytial virus strain A2 containing the firefly luciferase reporter (RSV-Fluc). In words: microbe, parasite or virus in culture. The settings on record: human respiratory syncytial virus, NHBE. It is filed as cell-based.
Where [2] appears, read: 72 h, read-out: RSV-Fluc EC50 (NHBE), NHBE cells, three days, Table 2.

Where two headings read alike, the source gives them in different places.

With `CCCCCCCCCCCCCCCCCCOC[C@H](COP(=O)(O)OC[C@H]1O[C@@](C#N)(c2ccc3c(N)ncnn23)[C@H](O)[C@@H]1O)OCc1ccc(OC)c(Cl)c1` [Example 49, ((2R,3S,4R,5R)-5-(4-aminopyrrolo[2,1-f][1,2,4]triazin-7-yl)-5-cyano-3,4-dihydroxytetrahydrofuran-2-yl)methyl ((R)-2-((3-chloro-4-methoxybenzyl)oxy)-3-(octadecyloxy)propyl) hydrogen phosphate], in “MT4 cytotoxicity (CC50)” (MT4 CC50, Table 2a), the cytotoxic concentration (CC50) was 0.951 µM. Further, the concentration giving a half-maximal response (EC50) with SARS-CoV-2 was determined as 3.35 µM; in data set [1] (setting [2]), 230 nM; in data set [1] (read-out: RSV EC50, Table 2a), 232 nM.
For the compound `CCCCCCCCCCCCCCCCCCOC[C@H](COP(=O)(O)OC[C@H]1O[C@@](C#N)(c2ccc3c(N)ncnn23)[C@H](O)[C@@H]1O)OCc1ccc2c(c1)CCC2` [Example 52, ((2R,3S,4R,5R)-5-(4-aminopyrrolo[2,1-f][1,2,4]triazin-7-yl)-5-cyano-3,4-dihydroxytetrahydrofuran-2-yl)methyl ((R)-2-((2,3-dihydro-1H-inden-5-yl)methoxy)-3-(octadecyloxy)propyl) hydrogen phosphate], the half-maximal cytotoxic concentration (CC50) in the data set “MT4 cytotoxicity (CC50)” (MT4 CC50, Table 2a) was found to be 17.9 µM. The EC50 with SARS-CoV-2 was 0.487 µM; in data set [1] (read-out: RSV EC50, Table 2a) it was 125 nM.
With `CCCCCCCCCCCCCCCCCCOC[C@H](COP(=O)(O)OC[C@H]1O[C@@](C#N)(c2ccc3c(N)ncnn23)[C@H](O)[C@@H]1O)OCc1ccc(C#N)cc1F` [Example 53, ((2R,3S,4R,5R)-5-(4-aminopyrrolo[2,1-f][1,2,4]triazin-7-yl)-5-cyano-3,4-dihydroxytetrahydrofuran-2-yl)methyl ((R)-2-((4-cyano-2-fluorobenzyl)oxy)-3-(octadecyloxy)propyl) hydrogen phosphate], the midpoint of cytotoxicity in “MT4 cytotoxicity (CC50)” (MT4 CC50, Table 2a), the CC50, lay at 1.84 µM. Besides, the EC50 in the data set with SARS-CoV-2 is 0.912 µM; in data set [1] (read-out: RSV EC50, Table 2a), 32 nM.
On the same counts, the results for `CCCCCCCCCCCCCCCCCCOC[C@H](COP(=O)(O)OC[C@H]1O[C@@](C#N)(c2ccc3c(N)ncnn23)[C@H](O)[C@@H]1O)OCc1ccc(C#N)c(OC)c1` [Example 54, ((2R,3S,4R,5R)-5-(4-Aminopyrrolo[2,1-f][1,2,4]triazin-7-yl)-5-cyano-3,4-dihydroxytetrahydrofuran-2-yl)methyl ((R)-2-((4-cyano-3-methoxybenzyl)oxy)-3-(octadecyloxy)propyl) hydrogen phosphate] are 0.289 µM, 1.63 µM and 19 nM.
Take `CCCCCCCCCCCCCCCCCOCCCOP(=O)(O)OC[C@H]1O[C@@](C#N)(c2ccc3c(N)ncnn23)[C@H](O)[C@@H]1O` [Example 55, ((2R,3S,4R,5R)-5-(4-aminopyrrolo[2,1-f][1,2,4]triazin-7-yl)-5-cyano-3,4-dihydroxytetrahydrofuran-2-yl)methyl (3-(heptadecyloxy)propyl) hydrogen phosphate]: it took 29.9 µM to reach half-maximal cytotoxicity in “MT4 cytotoxicity (CC50)” (MT4 CC50, Table 2a) (CC50). In addition, the half-maximal effective concentration (EC50) is 9.42 µM in the data set with SARS-CoV-2 and 86 nM in data set [1] (read-out: RSV EC50, Table 2a).
For `CCCCCCCCCCOCCCOP(=O)(O)OC[C@H]1O[C@@](C#N)(c2ccc3c(N)ncnn23)[C@H](O)[C@@H]1O` [Example 56, ((2R,3S,4R,5R)-5-(4-Aminopyrrolo[2,1-f][1,2,4]triazin-7-yl)-5-cyano-3,4-dihydroxytetrahydrofuran-2-yl)methyl (3-(decyloxy)propyl) hydrogen phosphate], in “MT4 cytotoxicity (CC50)” (MT4 CC50, Table 2a), the 50% cytotoxic concentration (CC50) worked out at 50 µM. Besides, the EC50 was determined as 10 µM in the data set on SARS-CoV-2; 5000 nM in data set [1] (setting [2]); 5000 nM in data set [1] (read-out: RSV EC50, Table 2a).
`CCCCCCCCCCCCOCCCOP(=O)(O)OC[C@H]1O[C@@](C#N)(c2ccc3c(N)ncnn23)[C@H](O)[C@@H]1O` [Example 57, ((2R,3S,4R,5R)-5-(4-Aminopyrrolo[2,1-f][1,2,4]triazin-7-yl)-5-cyano-3,4-dihydroxytetrahydrofuran-2-yl)methyl (3-(dodecyloxy)propyl) hydrogen phosphate] came in with a half-maximal cytotoxic concentration (CC50) in “MT4 cytotoxicity (CC50)” (MT4 CC50, Table 2a) of 50 µM. Further, the EC50 in the data set on SARS-CoV-2 turned out to be 10 µM; in data set [1] (setting [2]) it was 2200 nM; in data set [1] (read-out: RSV EC50, Table 2a), 2180 nM.
With `CCCCCCCCCCCCCCOCCCOP(=O)(O)OC[C@H]1O[C@@](C#N)(c2ccc3c(N)ncnn23)[C@H](O)[C@@H]1O` [Example 58, ((2R,3S,4R,5R)-5-(4-Aminopyrrolo[2,1-f][1,2,4]triazin-7-yl)-5-cyano-3,4-dihydroxytetrahydrofuran-2-yl)methyl (3-(tetradecyloxy)propyl) hydrogen phosphate], in “MT4 cytotoxicity (CC50)” (MT4 CC50, Table 2a), the midpoint of cytotoxicity, the CC50, lay at 13 µM. Further, the half-maximal effective concentration (EC50) in the data set with SARS-CoV-2 was 10 µM; in data set [1] (setting [2]) it was 70 nM; in data set [1] (read-out: RSV EC50, Table 2a) it was 70 nM.
In “MT4 cytotoxicity (CC50)” (MT4 CC50, Table 2a), `CCCCCCCCCCCCCCCCCCOCCCOP(=O)(O)OC[C@H]1O[C@@](C#N)(c2ccc3c(N)ncnn23)[C@H](O)[C@@H]1O` [Example 59, ((2R,3S,4R,5R)-5-(4-Aminopyrrolo[2,1-f][1,2,4]triazin-7-yl)-5-cyano-3,4-dihydroxytetrahydrofuran-2-yl)methyl (3-(octadecyloxy)propyl) hydrogen phosphate] showed a half-maximal cytotoxic concentration (CC50) of 19.6 µM. Besides, the half-maximal effective concentration (EC50) in the data set with SARS-CoV-2 was 10 µM; in data set [1] (setting [2]) it was 170 nM; in data set [1] (read-out: RSV EC50, Table 2a) it was 171 nM.
The like results for `CCCCCCCCCCCCCCCCOCCCOP(=O)(O)OC[C@H]1O[C@@](C#N)(c2ccc3c(N)ncnn23)[C@H](O)[C@@H]1O` [Example 60, ((2R,3S,4R,5R)-5-(4-Aminopyrrolo[2,1-f][1,2,4]triazin-7-yl)-5-cyano-3,4-dihydroxytetrahydrofuran-2-yl)methyl (3-(hexadecyloxy)propyl) hydrogen phosphate] were, in that order, 25.8 µM, 6.95 µM, 73 nM and 73 nM.
The like results for `CCCCCCCCCCCCCCCCOC[C@H](COP(=O)(O)OC[C@H]1O[C@@](C#N)(c2ccc3c(N)ncnn23)[C@H](O)[C@@H]1O)OCCCCCCCCCCCCCCCC` [Example 61, ((2R,3S,4R,5R)-5-(4-Aminopyrrolo[2,1-f][1,2,4]triazin-7-yl)-5-cyano-3,4-dihydroxytetrahydrofuran-2-yl)methyl ((R)-2,3-bis(hexadecyloxy)propyl) hydrogen phosphate] were, in that order, 50 µM, 10 µM, 4500 nM and 4540 nM.
On the same counts, the results for `CCCCCCCCCCCCCCCCCCOC[C@H](COP(=O)(O)OC[C@H]1O[C@@](C#N)(c2ccc3c(N)ncnn23)[C@H](O)[C@@H]1O)OCc1ccc(Cl)cc1Cl` [Example 62, ((2R,3S,4R,5R)-5-(4-aminopyrrolo[2,1-f][1,2,4]triazin-7-yl)-5-cyano-3,4-dihydroxytetrahydrofuran-2-yl)methyl ((R)-2-((2,4-dichlorobenzyl)oxy)-3-(octadecyloxy)propyl) hydrogen phosphate] are 12.6 µM, 8.62 µM, 220 nM and 217 nM.
As for `CCCCCCCCCCCCCCCCCCOC[C@H](COP(=O)(O)OC[C@H]1O[C@@](C#N)(c2ccc3c(N)ncnn23)[C@H](O)[C@@H]1O)OCc1ccc(C#N)c(F)c1` [Example 67, ((2R,3S,4R,5R)-5-(4-aminopyrrolo[2,1-f][1,2,4]triazin-7-yl)-5-cyano-3,4-dihydroxytetrahydrofuran-2-yl)methyl ((R)-2-((4-cyano-3-fluorobenzyl)oxy)-3-(octadecyloxy)propyl) hydrogen phosphate], it took 0.744 µM to reach half-maximal cytotoxicity in “MT4 cytotoxicity (CC50)” (MT4 CC50, Table 2a) (CC50). Further, the EC50 is 0.229 µM in the data set with SARS-CoV-2; 7.6 nM in data set [1] (setting [2]); 19 nM in data set [1] (read-out: RSV EC50, Table 2a).
As to `CCCCCCCCCCCCCCCCCCOC[C@H](COP(=O)(O)OC[C@H]1O[C@@](C#N)(c2ccc3c(N)ncnn23)[C@H](O)[C@@H]1O)Oc1ccccc1C#N` [Example 73, ((2R,3S,4R,5R)-5-(4-aminopyrrolo[2,1-f][1,2,4]triazin-7-yl)-5-cyano-3,4-dihydroxytetrahydrofuran-2-yl)methyl ((R)-2-(2-cyanophenoxy)-3-(octadecyloxy)propyl) hydrogen phosphate], the 50% cytotoxic concentration (CC50) in the data set “MT4 cytotoxicity (CC50)” (MT4 CC50, Table 4) turned out to be 1.21 µM. The EC50 with SARS-CoV-2 is 0.15 µM; in data set [1] (read-out: RSV EC50, Table 4), 107 nM.
`CCCCCCCCCCCCCCCCCCOC[C@H](COP(=O)(O)OC[C@H]1O[C@@](C#N)(c2ccc3c(N)ncnn23)[C@H](O)[C@@H]1O)Oc1ccc(C#N)c(OC)c1` [Example 74, ((2R,3S,4R,5R)-5-(4-aminopyrrolo[2,1-f][1,2,4]triazin-7-yl)-5-cyano-3,4-dihydroxytetrahydrofuran-2-yl)methyl ((R)-2-(4-cyano-3-methoxyphenoxy)-3-(octadecyloxy)propyl) hydrogen phosphate] returned a half-maximal cytotoxic concentration (CC50) in “MT4 cytotoxicity (CC50)” (MT4 CC50, Table 4) of 0.196 µM. In addition, the concentration for a half-maximal effect (EC50) was 0.031 µM with SARS-CoV-2 and 10 nM in data set [1] (read-out: RSV EC50, Table 4).
The like results for `CCCCCCCCCCCCCCCCCCOC[C@H](COP(=O)(O)OC[C@H]1O[C@@](C#N)(c2ccc3c(N)ncnn23)[C@H](O)[C@@H]1O)OCc1cncc(C#N)c1` [Example 75, ((2R,3S,4R,5R)-5-(4-aminopyrrolo[2,1-f][1,2,4]triazin-7-yl)-5-cyano-3,4-dihydroxytetrahydrofuran-2-yl)methyl ((R)-2-((5-cyanopyridin-3-yl)methoxy)-3-(octadecyloxy)propyl) hydrogen phosphate] were, in that order, 0.195 µM, 0.028 µM and 72 nM.
Take `CCCCCCCCCCCCCCCCCCOC[C@H](COP(=O)(O)OC[C@H]1O[C@@](C#N)(c2ccc3c(N)ncnn23)[C@H](O)[C@@H]1O)Oc1ccc(C#N)cn1` [Example 76, ((2R,3S,4R,5R)-5-(4-aminopyrrolo[2,1-f][1,2,4]triazin-7-yl)-5-cyano-3,4-dihydroxytetrahydrofuran-2-yl)methyl ((R)-2-((5-cyanopyridin-2-yl)oxy)-3-(octadecyloxy)propyl) hydrogen phosphate]: the half-maximal cytotoxic concentration (CC50) in the data set “MT4 cytotoxicity (CC50)” (MT4 CC50, Table 4) came to 0.295 µM. Also, the half-maximal effective concentration (EC50) in the data set with SARS-CoV-2 was found to be 0.048 µM; in data set [1] (read-out: RSV EC50, Table 4), 31 nM.
